Here are results for 1 compound from ChEMBL document CHEMBL4732170, “Discovery of Small-Molecule Antagonists of the PWWP Domain of NSD2” (J Med Chem, 2021).

The source made the active and inactive calls. The rule behind the calls is not given here.

For experiment [1], the target named is DNA (cytosine-5)-methyltransferase 3B (Homo sapiens) (UniProt Q9UBC3). Kind of experiment: Binding affinity to DNMT3b PWWP domain (unknown origin) assessed as aggregation temperature at 400 uM by heating at 25 to 85 degC by differential static light scattering method.
In a further experiment the target is T1, Peregrin (Homo sapiens) (UniProt P55201).
T1 sequence (whole entry): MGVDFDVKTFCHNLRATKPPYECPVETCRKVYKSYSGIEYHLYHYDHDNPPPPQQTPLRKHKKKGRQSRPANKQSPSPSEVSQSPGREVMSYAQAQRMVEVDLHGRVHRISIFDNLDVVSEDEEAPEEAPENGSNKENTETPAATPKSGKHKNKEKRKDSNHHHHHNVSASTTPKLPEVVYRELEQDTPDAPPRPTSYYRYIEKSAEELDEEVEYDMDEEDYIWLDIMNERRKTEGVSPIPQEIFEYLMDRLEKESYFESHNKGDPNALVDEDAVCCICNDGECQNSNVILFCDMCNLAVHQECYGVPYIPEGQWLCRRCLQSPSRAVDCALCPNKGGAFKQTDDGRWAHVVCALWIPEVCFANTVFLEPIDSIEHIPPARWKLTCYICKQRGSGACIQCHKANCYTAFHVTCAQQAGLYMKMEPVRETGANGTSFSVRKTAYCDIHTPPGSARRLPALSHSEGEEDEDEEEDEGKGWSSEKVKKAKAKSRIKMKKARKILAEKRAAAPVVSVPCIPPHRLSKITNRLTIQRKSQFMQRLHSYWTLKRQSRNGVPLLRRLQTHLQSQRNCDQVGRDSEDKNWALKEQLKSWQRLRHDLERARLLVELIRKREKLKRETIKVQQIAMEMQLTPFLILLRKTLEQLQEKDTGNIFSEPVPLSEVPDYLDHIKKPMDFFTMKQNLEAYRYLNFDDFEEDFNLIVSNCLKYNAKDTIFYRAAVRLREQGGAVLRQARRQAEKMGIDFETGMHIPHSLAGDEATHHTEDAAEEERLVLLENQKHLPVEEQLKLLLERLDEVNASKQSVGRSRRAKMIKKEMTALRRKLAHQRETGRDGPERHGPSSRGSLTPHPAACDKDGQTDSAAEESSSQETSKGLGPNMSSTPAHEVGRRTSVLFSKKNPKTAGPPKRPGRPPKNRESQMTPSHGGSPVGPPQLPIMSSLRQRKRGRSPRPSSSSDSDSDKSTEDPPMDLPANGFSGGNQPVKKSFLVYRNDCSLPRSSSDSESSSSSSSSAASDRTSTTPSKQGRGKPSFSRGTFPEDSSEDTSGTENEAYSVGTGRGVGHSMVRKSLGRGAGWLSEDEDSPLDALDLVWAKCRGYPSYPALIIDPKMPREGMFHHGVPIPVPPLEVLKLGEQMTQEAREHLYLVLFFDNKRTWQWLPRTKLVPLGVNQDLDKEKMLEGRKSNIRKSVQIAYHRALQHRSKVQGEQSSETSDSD
As to the kind of experiment: Binding affinity to BRPF1 PWWP domain (unknown origin) assessed as aggregation temperature at 400 uM by heating at 25 to 85 degC by differential static light scattering method.

The target in experiment [2] is T2, Histone-lysine N-methyltransferase NSD2 (Homo sapiens) (UniProt O96028).
T2 sequence (whole entry): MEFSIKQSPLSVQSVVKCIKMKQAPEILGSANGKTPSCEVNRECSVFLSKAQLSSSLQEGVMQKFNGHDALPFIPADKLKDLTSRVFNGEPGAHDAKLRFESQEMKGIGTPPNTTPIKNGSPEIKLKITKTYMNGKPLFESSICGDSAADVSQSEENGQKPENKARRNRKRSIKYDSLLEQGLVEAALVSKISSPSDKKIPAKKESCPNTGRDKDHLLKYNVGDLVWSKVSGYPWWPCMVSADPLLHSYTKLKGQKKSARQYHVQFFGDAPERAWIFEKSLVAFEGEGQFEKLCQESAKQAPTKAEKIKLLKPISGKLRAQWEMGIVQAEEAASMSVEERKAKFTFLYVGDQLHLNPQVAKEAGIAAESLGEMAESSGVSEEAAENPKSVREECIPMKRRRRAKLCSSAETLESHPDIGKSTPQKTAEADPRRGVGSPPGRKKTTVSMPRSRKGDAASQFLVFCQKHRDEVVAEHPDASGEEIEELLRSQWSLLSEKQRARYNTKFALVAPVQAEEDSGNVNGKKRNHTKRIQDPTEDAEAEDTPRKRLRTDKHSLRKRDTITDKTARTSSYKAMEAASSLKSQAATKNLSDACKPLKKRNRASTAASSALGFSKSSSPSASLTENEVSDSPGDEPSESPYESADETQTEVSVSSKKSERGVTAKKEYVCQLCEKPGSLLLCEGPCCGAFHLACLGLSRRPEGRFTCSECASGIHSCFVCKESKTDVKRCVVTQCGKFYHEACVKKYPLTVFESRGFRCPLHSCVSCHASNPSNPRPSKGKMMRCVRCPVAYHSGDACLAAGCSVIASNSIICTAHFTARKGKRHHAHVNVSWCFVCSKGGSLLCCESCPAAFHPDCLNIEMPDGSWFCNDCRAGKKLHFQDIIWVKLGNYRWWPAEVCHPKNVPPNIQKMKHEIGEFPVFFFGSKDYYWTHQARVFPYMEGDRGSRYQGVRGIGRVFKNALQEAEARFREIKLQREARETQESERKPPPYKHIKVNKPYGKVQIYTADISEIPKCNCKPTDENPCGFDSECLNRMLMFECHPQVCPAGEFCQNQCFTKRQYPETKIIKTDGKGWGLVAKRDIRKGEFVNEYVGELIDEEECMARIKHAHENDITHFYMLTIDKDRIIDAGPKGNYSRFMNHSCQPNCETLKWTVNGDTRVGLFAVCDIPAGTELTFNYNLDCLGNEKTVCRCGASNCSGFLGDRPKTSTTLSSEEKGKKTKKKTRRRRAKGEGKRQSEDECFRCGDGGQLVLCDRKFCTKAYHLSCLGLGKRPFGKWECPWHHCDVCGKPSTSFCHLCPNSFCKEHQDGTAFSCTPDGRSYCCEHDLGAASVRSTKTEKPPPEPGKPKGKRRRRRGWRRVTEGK
The conditions noted are these: filed as antagonist, dose 400.0 µM.
Description: Binding affinity to NSD2 PWWP1 domain (unknown origin) assessed as change in aggregation temperature at 400 uM by heating at 25 to 85 degC by differential static light scattering method

With `N#Cc1ccc(C(C(N)=O)N2CCC2c2ccc(Cl)cc2)cc1` (stereo not drawn), the result (in experiment [1]; on Peregrin (Homo sapiens)) was inactive. The compound also returned a deltaT in experiment [2] of 3.9 °C.
